Reference: ChEMBL document CHEMBL3769330, “Synthesis of pyrimido[4,5-c]azepine- and pyrimido[4,5-c]oxepine-based γ-secretase modulators” (Bioorg Med Chem Lett, 2016)
Active and inactive are the calls of the source. The calls are words filed in the database; no cut-off is given here.

Assays:
Gamma-secretase = test: Modulation of gamma-secretase activity (unknown origin) assessed as amyloid-beta(1-42) production by ELISA; format: protein-complex assay, Homo sapiens
Rattus norvegicus = test: Reduction of amyloid-beta peptides level in rat brain at 30 mg/kg, po; format: functional, organism-based

IC50 (Gamma-secretase) [nM] | Compound | inhibition (Rattus norvegicus)
56 | COc1cc(Nc2nc3c(c(N(C)C)n2)C=CCOC3c2ccccc2)ccc1-n1cnc(Cl)c1 (stereo unspecified) | 
21 | COc1cc(Nc2nc3c(c(N(C)C)n2)C=CCN=C3c2ccccc2)ccc1-n1cnc(Cl)c1 | Active
36 | COc1cc(Nc2nc3c(c(N(C)C)n2)C=CCNC3c2ccccc2)ccc1-n1cnc(Cl)c1 (stereo unspecified) | 
5 | CNc1nc(Nc2ccc(-n3cnc(Cl)c3)c(OC)c2)nc2c1C=CCN=C2c1ccccc1 | Active
